ChEMBL document CHEMBL1124592, “In vitro metabolic transformations of vinblastine: oxidations catalyzed by human ceruloplasmin” (J Med Chem, 1989)
≈ marks a conversion by molar mass, not a printed value.

tested on: CCRF-CEM; test: Inhibition against […]-T-Cell leukemic cell line; format: functional, cell-based; settings: Homo sapiens

Row | Structure (SMILES) | IC50
1 | CCC(=O)C[C@@H]1CN(C=O)CCc2c([nH]c3ccccc23)[C@@](C(=O)OC)(c2cc3c(cc2OC)N(C)[C@H]2[C@@](O)(C(=O)OC)[C@H](OC(C)=O)[C@]4(CC)C=CCN5CC[C@]32[C@@H]54)C1 | 7.7 µg/mL (≈ 9.33 µM)
2 | CC[C@]12CN3CCc4c([nH]c5ccccc45)[C@@](C(=O)OC)(c4cc5c(cc4OC)N(C)[C@H]4[C@@](O)(C(=O)OC)[C@H](OC(C)=O)[C@]6(CC)C=CCN7CC[C@]54[C@@H]76)C[C@@H](C3)[C@H]1O2.CC[C@]12CN3CCc4c([nH]c5ccccc45)[C@@](C(=O)OC)(c4cc5c(cc4OC)N(C)[C@H]4[C@@](O)(C(=O)OC)[C@H](OC(C)=O)[C@]6(CC)C=CCN7CC[C@]54[C@@H]76)C[C@@H](C3)[C@H]1O2.O=S(=O)(O)O [VINLEUROSINE SULFATE] | 0.4 µg/mL
3 | CCC(=O)CC1CN(C=O)CCc2c([nH]c3ccccc23)[C@@](C(=O)OC)(c2cc3c(cc2OC)N(C)C2C4(C(=O)OC)OC5C=CN6CCC32C6[C@]5(CC)C4OC(C)=O)C1 (stereo not given in full) | 14 µg/mL (≈ 17 µM)

Second part, the compound after the results:

Row | IC50 | Structure (SMILES)
4 | 0.025 µg/mL (≈ 0.0303 µM) | CC[C@]1(O)C[C@H]2CN(CCc3c([nH]c4ccccc34)[C@@](C(=O)OC)(c3cc4c(cc3OC)N(C=O)[C@H]3[C@@](O)(C(=O)OC)[C@H](OC(C)=O)[C@]5(CC)C=CCN6CC[C@]43[C@@H]65)C2)C1 [VINCRISTINE]
5 | 0.1 µg/mL (≈ 0.123 µM) | CC[C@]1(O)C[C@@H]2CN(CCc3c([nH]c4ccccc34)[C@@](C(=O)OC)(c3cc4c(cc3OC)N(C)[C@H]3[C@@](O)(C(=O)OC)[C@H](OC(C)=O)[C@]5(CC)C=CCN6CC[C@]43[C@@H]65)C2)C1 [VINBLASTINE]
